The text below walks through data of paper PMC7772935, “Plant-Derived Compounds as a Tool for the Control of Gastrointestinal Nematodes: Modulation of Abamectin Pharmacological Action by Carvone” (Frontiers in Veterinary Science, 2020).

Marks after values point to notes of the source that are not given here.

Data set [1] is described as follows: Undesirable effects after oral administration in the in vivo assay. Particulars: lambs, R-CNE 100 mg/kg, four oral doses every 24 h. The text has this: (§1) All the animals had free access to water. Lambs were assigned to three experimental groups.
For data set [2], the system named is bovine ileal explants. The data set can be described thus: ABM accumulation in bovine ileal explants, modulation by R-CNE or IVM. The data set is classed as in vitro ADME, cattle. The note with it: 0.05 μM ABM; for Effect on ABM accumulation in intestinal explants: 3.33 mM R-CNE or 0.5 μM IVM, 15-60 min. The text has this: Cattle ileum samples were obtained from a local slaughterhouse ([…], Argentina) located 16 km away from the laboratory facilities.

Data set [3] is described as follows: R-CNE plasma concentrations after oral administration to lambs. Type of data set: in vivo. Particulars: Corriedale and Texel crossbreed, sheep, 100 mg/kg oral, four doses every 24 h, after each dose. The method, then: as §1
R-CNE analysis was performed according the technique described by Tao and Pereira ([23]), with modifications. Aliquots of plasma (0.25 mL) were mixed with acetonitrile, agitated and centrifuged. Supernatants were injected into the HPLC system fitted with a Kromasil C18 column. The mobile phase was water/acetonitrile (40/60) at an isocratic flow of 1.3 mL/min. R-CNE was analyzed using a UV detector (Shimadzu, SPD-10A).
(§2) Data are expressed as mean ± standard deviation (SD). […] Differences were considered statistically significant at p < 0.05.

For data set [4], the system named is Haemonchus spp. eggs and larvae. Further details: method as in PMID 28807309. The note with it: in vitro; cited from earlier work.
Data set [5] deals with Haemonchus contortus egg hatch. Further details: method as in PMID 28807309. Particulars: in vitro; cited from earlier work.
For data set [6], the system named is bovine ileal explants.
Source text: as §2

In another data set the test system is P-gp. Also noted: method as in PMID 16384552. Particulars: read-out: Concentration that inhibited the activated ATPase activity by 50%; cited from earlier work.
Another data set deals with sheep intestine. Further details: method as in PMID 24611483. Particulars: Ussing chambers; cited from earlier work.
The nature of data set [7]: ABM plasma disposition after oral administration to lambs. The note with it: ABM 0.2 mg/kg oral, alone or with R-CNE 4 x 100 mg/kg every 24 h, mean ± SD, n = 8.
Source text: as §2

Another data set has as its system P-gp transport. Also noted: method as in PMID 25865432. The note with it: cited from earlier work.
For data set [8], the system named is resistant gastrointestinal nematodes. Kind of data set: Fecal egg count reduction test in naturally infected lambs. The data set is classed as in vivo. The method, then: as §1
The fecal samples were analyzed to obtain the epg counts. The coprocultures were prepared with 10 g of feces from a pool of each experimental group obtained on days−1 and 14. The nematode genera and species were identified through the third-stage larvae recovered from the coprocultures ([24]). The fecal egg count reduction test (FECRT) was calculated using the Abbott's formula ([25]), with modifications: […]
where T1 and T2 are the arithmetic mean epg counts in the treated group on days 0 and 14, respectively, and C1 and C2 are the arithmetic mean epg counts in the control group on days 0 and 14, respectively. The 95% confidence intervals were calculated following Coles et al. ([26]).

`C=C(C)C1CC=C(C)C(=O)C1` (centres unmarked) [R-CNE, 5-isopropenyl-2-methyl-2-cyclohexenone]: the “Undesirable effects after oral administration” value in [1] is listed as “no undesirable effects were observed”. Also, in the data set on bovine ileal explants [2], the “Effect on ABM accumulation in intestinal explants” value was “increased the intestinal concentration of the synthetic anthelmintic ABM at 15 and 30 min of incubation”. Also, the “Intestinal concentration of ABM, % higher than control (ABM alone)” value with bovine ileal explants [2] (30 min of incubation, 3.33 mM R-CNE) came out at 28.1 ± 35.7%. Further, the concentration in data set [3] peaked (Cmax) at 1790 ± 598 ng/mL. In addition, the “Concentrations necessary to obtain an efficacy >90%” value in data set [4] is 370 µg/mL. Moreover, in data set [5], the 50% lethal concentration was 85 µg/mL. Further, in the data set on bovine ileal explants [6] (3.33 mM R-CNE, 15, 30, 45, 60 min), the “Effect on Rho123 concentrations in the intestinal explants” value is “significantly increased Rho123 concentrations in the intestinal explants at all incubation times”. Also, the “Rho123 concentration in intestinal explants, % higher than Rho123 incubated alone” value in the data set on bovine ileal explants [6] (60 min of incubation, 3.33 mM R-CNE, 0.5 μM Rho123) was 67 ± 21%.

As for `COC(=O)c1ccccc1-c1c2ccc(=N)cc-2oc2cc(N)ccc12` [Rho123, Rhodamine 123], the “Accumulation rate of Rho123” value in the data set on bovine ileal explants [6] (male, Aberdeen Angus/Hereford crossbreed, cattle, 0.5 µM) was 0.69 ± 0.19 ρg Rho/min/mg tissue.

As to `CC[C@H](C)[C@H]1O[C@]2(CC[C@@H]1C)C[C@@H]1C[C@@H](C/C=C(\C)[C@@H](O[C@H]3C[C@H](OC)[C@@H](O[C@H]4C[C@H](OC)[C@@H](O)[C@H](C)O4)[C@H](C)O3)[C@@H](C)/C=C/C=C3\CO[C@@H]4[C@H](O)C(C)=C[C@@H](C(=O)O1)[C@]34O)O2` [IVM, ivermectin], the IC50 in the data set on P-gp was 2500 nM. Also, the “Increase of Rho123 absorption in the presence of the inhibitor” value in the data set on sheep intestine is listed as 69%. For the same compound, the “Effect on ABM accumulation in intestinal explants” value with bovine ileal explants [2] is “significantly increased the accumulation of ABM in the intestinal explants at all incubation times”.

With abamectin [ABM], in [7], the “AUC0−168h of ABM” value was determined as 815.67 ± 303.1, the “Cmax of ABM” value was 16.20 ± 10.2^a μg/mL, the “Tmax of ABM” value is 10.75 ± 9.6^a h and the “T½ el (elimination half-life) of ABM” value is 28.04 ± 8.1^a h. Further, the “Concentrations necessary to inhibit P-gp transport, fold lower than to inhibit MRPs-mediated transport” value in the data set on P-gp transport is recorded as 3 fold. The “Mean epg counts Day 14” value in [8] (14 days after oral administration, mean ± SD) was found to be 45 ± 121 epg. Also, the “Classification of drug efficacy according to Coles et al.” value in data set [8] (FECRT criteria) is “suspected of resistance”. Moreover, the “Mean epg counts Day 0” value in [8] (before treatment, mean ± SD) is on record as 2,193 ± 858 epg. Moreover, in data set [8] (day 14, 95% confidence limits), the “FECR (LCL-UCL)” value was 94.9 (65.0-99.0) %. Besides, in data set [8] (day 14, third-stage larvae), the “Proportion of Haemonchus spp. in coprocultures after treatment” value stood at 88% and the “Proportion of Teladorsagia spp. in coprocultures after treatment” value turned out to be 12%.
